# “And” between values parts separate entries of the source, which are not always exact repeats. Identical values can stand only once.
# Experiments:
# [1] = target: T1, Plk1-Map interaction (Homo sapiens, UniProt P53350); test: BRET Plk1-Map, stable HEK293T Plk1-Luc/GFP-Map cell line; type: cell-based; parameters: cDNAs for the human full length Plk1; expressed in transfected cells; conditions: for Primary screen Plk1-Map (stable) % Inihibition / Primary screen Plk1-Map (stable) % Quench RLuc: 10-25 μM, 2 h; for Confirmation Plk1-Map (stable) % Inihibition / Confirmation Plk1-Map (stable) % Quench RLuc: confirmation screen
# T1 sequence (P53350 whole entry): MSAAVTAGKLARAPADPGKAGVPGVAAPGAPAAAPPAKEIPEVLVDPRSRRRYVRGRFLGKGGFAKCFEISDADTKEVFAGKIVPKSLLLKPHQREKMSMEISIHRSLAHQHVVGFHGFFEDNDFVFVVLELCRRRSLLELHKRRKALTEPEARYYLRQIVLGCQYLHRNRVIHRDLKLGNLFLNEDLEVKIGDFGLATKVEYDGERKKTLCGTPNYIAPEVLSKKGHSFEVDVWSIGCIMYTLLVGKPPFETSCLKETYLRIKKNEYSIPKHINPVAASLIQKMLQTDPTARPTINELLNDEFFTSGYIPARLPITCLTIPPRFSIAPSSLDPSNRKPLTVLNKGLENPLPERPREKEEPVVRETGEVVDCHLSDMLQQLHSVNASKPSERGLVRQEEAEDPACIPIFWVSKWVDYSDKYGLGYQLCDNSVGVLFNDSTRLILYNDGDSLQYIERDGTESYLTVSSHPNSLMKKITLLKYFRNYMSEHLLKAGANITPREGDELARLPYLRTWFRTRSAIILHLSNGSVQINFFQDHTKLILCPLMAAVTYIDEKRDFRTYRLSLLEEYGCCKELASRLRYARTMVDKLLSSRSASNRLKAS
# Text: To develop a cell-based assay for the identification of Plk1 interaction inhibitors, we used Bioluminescence Resonance Energy Transfer (BRET)[42][43]. The assay monitors the interaction in HEK293T cells between Plk1 and Map205, a protein that we previously identified as an interactor of Drosophila Polo (Plk1 ortholog) on its PBD[44]. Although no ortholog of Drosophila Map205 has been found in vertebrates, this protein robustly interacts with vertebrate Plk1. […] Importantly, crystallography with zebrafish Plk1 has recently shown that Map205 nevertheless docks in the canonical phosphopeptide binding site of the PBD, with the natural phospho-mimetic Glu314 residue (Fig. 1A)[45]. In our assay, human Plk1 and a fragment of Drosophila Map205 (Map205_254-416 = Map) are respectively fused to Renilla luciferase II (Luc) and GFP10 (GFP), giving rise to energy transfer when the proteins are in close proximity (Fig. 1B). […] All combinations of Plk1 and Map tagged with Luc and GFP were tested (Supplementary Fig. S1). The Plk1-Luc/GFP-Map combination was selected because it yielded the highest BRET dynamic window. We then generated clonal stable cell lines co-expressing these two fusion proteins. These cell lines behaved very similarly to each other in BRET, and we selected one line that gave a high and reproducible BRET signal, with a Z′ score of 0.78, indicative of a robust assay for the purpose of a chemical screen (Supplementary Fig. S1).
# (§1) We used our cell-based assay to screen a library of 112 983 compounds available in-house at IRIC’s High-Throughput Screening (HTS) platform (see Materials & Methods). Compounds were tested on cells in 384-well plates at concentrations between 10 μM and 25 μM, depending on their concentration in the original stocks solutions. BRET readings were taken 2 hours after treatment. Results obtained show a tight, close to normal distribution centered around zero inhibition relative to DMSO-treated controls (Fig. 1D). Compounds inducing at least 30% BRET inhibition were selected. From these, auto-fluorescent compounds and those that induced more than 90% reduction in RLucII luminescence were removed, leaving 800 primary hits, that we then re-tested using the same assay. In parallel, we tested these compounds in a control BRET assay for an unrelated pair of interacting proteins (BRAF-CRAF[46]) to exclude false-positive compounds that could reduce the BRET signal by interfering with light or by modifying the activity of GFP or Luc.
# For BRET on transiently transfected cells, 48 hours after the transfection, medium was removed, cells were washed twice with PBS, and then Tyrode solution (140 mM NaCl, 2.7 mM KCl, 12 mM NaHCO3, 5.6 mM D-glucose, 0.49 mM MgCl2, 0.37 mM NaH2PO4, 25 mM HEPES, pH 7.4, where 1 mM CaCl2 was freshly added) was added to the cells. Total fluorescence was first measured using a FlexStation II microplate reader (Molecular Devices), where the GFP10 was excited at 400 nm and read at 510 nm. Then, cells were treated for 5 minutes with 2.5 μM coelenterazine 400a (Gold Technology) before reading BRET2 using the Mithras LB940 microplate reader (Berthold Technologies). BRET2 signal corresponds to the light emitted by the GFP10 acceptor constructs (515 nm ± 20 nm) divided by the light emitted by the RlucII donor constructs (400 nm ± 70 nm). Net BRET2 was calculated by subtracting the background BRET ratio of the RLucII plasmid alone from the BRET ratio obtained by the two BRET partners. The Net BRET2 was plotted according to the GFP10/RLucII ratio, which was obtained by dividing the total fluorescence by the RLucII emission.
# For the high throughput chemical screen, cells were amplified and frozen as multiple 1 ml aliquots containing 25 millions of stable HEK293T Plk1-Luc/GFP-Map cells to ensure that cells at the same passage number are used during the screen. […] Five days later, cells were counted and re-suspended in Tyrode solution. […]
# [2] = target: T1, Plk1-Map interaction; test: LUMIER co-immunoprecipitation assay Plk1-Map; conditions: for Relative Luminescence Unit: mean divided by maximum mean of the compounds; for Luminescence on beads, duplicate wells: raw data
# [3] = target: T2, CRAF-BRAF (Homo sapiens, UniProt P04049+P15056); test: control BRET CRAF-BRAF (transient); type: cell-based; conditions: for Primary screen CRAF-BRAF (transient) % Inihibition / Primary screen CRAF-BRAF (transient) % Quench RLuc: 10-25 μM; for Confirmation CRAF-BRAF (transient) % Inihibition / Confirmation CRAF-BRAF (transient) % Quench RLuc: confirmation screen
# T2 construct: expressed in transfected cells; host or cells: HEK293T, transient transfection with PEI
# T2 sequence (P04049 whole entry): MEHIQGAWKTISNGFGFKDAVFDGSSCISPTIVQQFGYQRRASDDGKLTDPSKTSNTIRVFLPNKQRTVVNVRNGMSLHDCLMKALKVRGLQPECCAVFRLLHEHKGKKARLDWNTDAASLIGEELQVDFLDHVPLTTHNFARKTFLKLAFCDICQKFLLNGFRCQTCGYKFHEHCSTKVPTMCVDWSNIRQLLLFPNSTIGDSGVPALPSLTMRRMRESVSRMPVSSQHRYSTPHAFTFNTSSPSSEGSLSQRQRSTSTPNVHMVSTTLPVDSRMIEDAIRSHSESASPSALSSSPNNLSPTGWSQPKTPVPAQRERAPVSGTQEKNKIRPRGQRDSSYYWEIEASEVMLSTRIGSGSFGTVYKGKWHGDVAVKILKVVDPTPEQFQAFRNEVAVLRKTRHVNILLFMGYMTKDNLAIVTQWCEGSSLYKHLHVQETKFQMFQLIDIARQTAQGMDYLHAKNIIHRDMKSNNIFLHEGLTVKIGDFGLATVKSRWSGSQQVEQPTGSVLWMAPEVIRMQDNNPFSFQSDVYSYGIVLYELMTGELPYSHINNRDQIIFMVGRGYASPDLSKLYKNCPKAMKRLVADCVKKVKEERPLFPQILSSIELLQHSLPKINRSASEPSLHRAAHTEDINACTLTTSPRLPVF
# T2 sequence (P15056 whole entry): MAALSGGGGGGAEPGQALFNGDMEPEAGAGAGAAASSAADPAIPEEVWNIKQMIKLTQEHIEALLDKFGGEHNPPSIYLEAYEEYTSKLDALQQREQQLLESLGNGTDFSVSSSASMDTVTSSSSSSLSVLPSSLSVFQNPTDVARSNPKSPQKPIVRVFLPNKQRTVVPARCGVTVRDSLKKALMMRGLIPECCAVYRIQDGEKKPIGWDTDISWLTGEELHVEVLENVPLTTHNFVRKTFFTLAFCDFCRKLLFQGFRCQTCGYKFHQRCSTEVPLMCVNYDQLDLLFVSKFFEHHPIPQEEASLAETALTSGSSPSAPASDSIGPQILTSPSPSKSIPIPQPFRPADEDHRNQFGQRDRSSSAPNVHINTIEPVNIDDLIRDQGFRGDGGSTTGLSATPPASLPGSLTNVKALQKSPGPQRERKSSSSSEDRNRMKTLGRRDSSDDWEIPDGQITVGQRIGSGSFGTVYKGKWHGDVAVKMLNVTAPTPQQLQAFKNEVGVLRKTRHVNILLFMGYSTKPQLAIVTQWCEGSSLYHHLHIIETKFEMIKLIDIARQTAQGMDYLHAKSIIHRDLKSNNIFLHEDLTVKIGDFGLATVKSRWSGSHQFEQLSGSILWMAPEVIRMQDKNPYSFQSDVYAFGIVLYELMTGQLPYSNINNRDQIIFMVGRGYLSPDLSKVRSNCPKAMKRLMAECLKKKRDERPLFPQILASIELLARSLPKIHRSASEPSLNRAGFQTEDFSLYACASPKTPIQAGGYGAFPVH
# Procedure: as §1
# (§2) For the confirmation screen, the same procedure as for the primary screen was followed, except that HEK293T cells were also seeded at 6.25 millions of cells per simple CellStack on day 1 for transient transfections. These cells were transfected on day 3 with Luc-Map (5 μg) and Plk1-GFP (25 μg) pIRESHyg3 plasmids using polyethylenimine (PEI). To identify false-positives compounds, Luc-CRAF (4 μg) and GFP-BRAF (20 μg) plasmids were also transfected with PEI following the published procedure.
# [4] = target: T1, Plk1-Map interaction; test: BRET Plk1-Map, transient Luc-Map/Plk1-GFP in HEK293T; type: cell-based; parameters: cDNAs for the human full length Plk1; expressed in transfected cells; conditions: confirmation screen
# Procedure: as §2
# [5] = target: GST-PBD367-603 of Plk1 (Homo sapiens, UniProt P53350); test: fluorescence polarization assay PBD-phosphopeptide
# Sequence of GST-PBD367-603 of Plk1 (P53350 367-603): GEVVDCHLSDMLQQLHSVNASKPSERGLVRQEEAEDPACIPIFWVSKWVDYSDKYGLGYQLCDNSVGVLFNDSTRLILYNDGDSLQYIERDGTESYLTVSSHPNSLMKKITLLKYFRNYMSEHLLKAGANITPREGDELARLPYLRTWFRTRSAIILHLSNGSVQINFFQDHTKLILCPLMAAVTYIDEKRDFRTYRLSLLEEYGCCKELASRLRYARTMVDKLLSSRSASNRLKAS
# Procedure: In this assay, an optimal phosphopeptide for PBD binding is coupled with a FITC fluorophore and its binding to purified recombinant PBD of Plk1 is monitored by the change in polarization of incident light.
# The FP buffer was composed of 10 mM Tris pH 8.0, 50 mM NaCl, 1 mM EDTA, 20% glycerol and 0.1% NP-40. The peptide (final concentration 10 nM) was always added to the wells of non-binding, black, 384-well plates, 1 hour after the addition of the protein with the buffer (+/− treatment, 10% DMSO). […] EC65s were used to perform the competitive assays with the non-labeled peptides and with the inhibitors. FP Inhibition was calculated with the formula: 100 − [((mPsample − mPfree peptide)\(mPDMSO − mPfree peptide)) × 100]. […] (Map peptide), and corresponding non-labeled peptides are identical but without FITC in N-terminal. […] Inhibition curves were fitted with GraphPad (Prism software).
# [6] = tested on: HeLa cells; test: mitotic index assay (phospho-Histone H3) in HeLa cells; type: cell-based; conditions: for Mitotic index (%): 10-25 μM, 7 h
# [7] = tested on: HeLa cells; test: mitotic defect phenotypes by immunofluorescence; type: cell-based; conditions: 10 μM, 7 h
# Procedure: HeLa cells were treated with these compounds along with the known PBD inhibitors PPG, TQ, Poloxin and the KD inhibitor BI2536 as controls, and then stained against α-Tubulin, pericentrin (a centrosome marker) and DNA (Fig. 2D). In all cases, there was a marked increase in the frequency of disorganized spindles compared with DMSO-treated control cells. This is expected as Plk1 plays multiple roles in spindle assembly and maintenance. […] Cpd 69, an analog of compound 122, induced a similar phenotype at lower concentrations (data not shown). This phenotype was not seen after treatment with BI2536.
# For the mitotic defect phenotypes, 25 200 HeLa cells were plated on poly-L-lysine coated round cover slips in 24-well plates. The day after, cells were treated for 7 hours, and then washed with PHEM buffer at 37 °C before fixation in PHEM buffer containing 4% formaldehyde for 20 minutes at 37 °C. Cells were washed three times with TBS-tween 0.1% and plate was kept overnight at 4 °C. Next steps were followed as previously described except that coverslips were incubated in a dark wet chamber with antibodies. Anti-pericentrin (diluted 1:1000; Abcam), anti-α-tubulin DM1A (diluted 1:500; Sigma-Aldrich), Alexa Fluor 488 anti-rabbit and Texas-Red anti-mouse (diluted 1:200; Invitrogen) were used. Coverslips were mounted on slide using Vectashield media containing DAPI (Vector Laboratories).
# Images shown in Fig. 2D were acquired on an AxioImager microscope (Carl Zeiss) with a 100x oil objective (NA 1.4 DICIII) and an AxioCam HRM camera (Carl Zeiss) using AxioVision software (Carl Zeiss).
# [8] = tested on: HEK293T cells; test: mitotic index assay (phospho-Histone H3) in HEK293T cells
# Procedure: For the mitotic index assay, 4000 HeLa cells or 5000 HEK293T cells per well were seeded in a 96-well plate. The day after, cells were incubated for 7 hours with different compounds, and then fixed by adding formaldehyde (4% final concentration) directly to each well. Plates were incubated 20 minutes at 37 °C, and then wells were rinsed three times with TBS-Tween 0.1%. A 1 hour block with PHEM buffer (60 mM Pipes, 25 mM HEPES, 10 mM EGTA, 4 mM MgSO4, pH 6.9) containing 2% BSA and 0.1% triton was performed, before addition of the primary antibody to the wells. The anti-phospho-Histone H3 (Ser10) antibody (EMD Millipore) was diluted 1:300 in PHEM buffer containing 2% BSA and added to the wells for 2 hours at room temperature in the dark. […] Plates were incubated for 1h 30 at room temperature in the dark, and then wells were washed 3 times with TBS-Tween 0.1%. A solution of Mowiol containing DAPI was finally added to the wells. Plates were kept at 4 °C in the dark until imaging using the 20x objective on an Operetta system (Perkin Elmer inc.). The mitotic index, corresponding to the percentage of pHH3 positive cells relative to the total number of DAPI-stained cells detected was calculated by the Operetta using the Harmony 3.5 software. Experiments were done in triplicates.
# [9] = reaction with amino-protected amino acids (LC-MS); conditions: room temperature
# Procedure: Vinyl sulfones are reactive species that can alkylate substrates as a result of a nucleophilic attack on the distal carbon of the vinyl group. To evaluate the potential of Cpd 161 (vinyl sulfone) to react with proteins, we tested its reaction with nucleophilic amino acid side chains groups. […] To test whether Cpd 161 could react covalently with the PBD, we incubated them together and examined the molecular mass of the protein by SDS-PAGE (Fig. 7). […] Consistent with this idea, the extent of the shift depended on the concentration of Cpd 161 used (Fig. 7B) and also on the incubation time (Fig. 7C).
# To a stirred solution of electrophile (0.02 mmol) and amino acid (1- 1.5eq) in DMF (0.3 ml) were added a few drops of a diluted aqueous solution of sodium bicarbonate. The reaction was monitored using an Agilent 6120 Quadrupole LC/MS system (Agilent Technologies). In all cases, the molecular ion of the product was observed.
Structure (SMILES),Primary screen Plk1-Map (stable) % Inihibition [1] [%],Primary screen Plk1-Map (stable) % Quench RLuc [1] [%],Confirmation Plk1-Map (stable) % Inihibition [1] [%],Confirmation Plk1-Map (stable) % Quench RLuc [1] [%],"Average-Beads (mean luminescence) ([2]; 10-25 μM, 2 h)","Co-IP Values relative to top in plate column = 1 ([2]; 10-25 μM, 2 h)",Relative Luminescence Unit [2],"Luminescence on beads, duplicate wells ([2]; 10-25 μM, 2 h)",Primary screen CRAF-BRAF (transient) % Inihibition [3] [%],Primary screen CRAF-BRAF (transient) % Quench RLuc [3] [%],Confirmation CRAF-BRAF (transient) % Inihibition [3] [%],Confirmation CRAF-BRAF (transient) % Quench RLuc [3] [%],Confirmation Plk1-Map (transient) % Inihibition [4] [%],Confirmation Plk1-Map (transient) % Quench RLuc [4] [%],Mitotic index (%) [6] [%],2 > pericentrin foci (percentage of cells) [7] [%],Disorganized spindles (percentage of cells) [7] [%],other results
N#Cc1cccnc1S(=O)(=O)CCOC(=O)c1cccc(Cl)c1 [Cpd 15],67.91,84.93,41.55,78.03,"18,942",0.017,0.017,"18,060 and 19,824",31.50,81.13,-4.59,86.14,53.01,72.97,0.81,,,"IC50 ([5]; FP - IC50 (μM), Table S3): 5.7 ± 2.8 µM; IC50 ([5]; IC50 in FP, GST-PBD367-603 38 nM, 1 h pre-incubation, FITC-phosphopeptide 10 nM, Fig. 4C): 6 µM"
COc1ccc(-c2oc3ccccc3c(=O)c2OS(=O)(=O)c2ccccc2)cc1 [Cpd 46],53.18,82.37,30.35,91.04,"601,974",0.219,0.219,"584,340 and 619,608",16.40,63.54,19.45,66.12,-29.25,72.57,29.44,,,
COc1ccc(-c2oc3ccccc3c(=O)c2OS(=O)(=O)c2cc(OC)ccc2OC)cc1 [Cpd 69],77.38,86.93,49.85,91.91,"281,985",0.866,0.866,"232,744 and 331,226",18.32,72.42,7.18,67.88,-0.61,62.73,30.13,2 ± 2,100 ± 0,"effect on the Plk1-Map interaction in co-IP ([2]; 10-25 μM, 2 h): no effect; effect on mitotic index, purchased compounds ([8]; 1 μM): small increase; effect on mitotic index, purchased compounds ([8]; 10 μM): significant increase; activity in the FP assay ([5]; 50 μM): little or no activity; effect on mitotic index, purchased compounds ([6]; 10 μM): significant increase"
CC1=CC(=O)C(C(C)C)=C/C1=N\OC(=O)c1ccccc1C [Poloxin],,,,,,,,,,,,,,,,27 ± 21,61 ± 14,time to completion of reaction with amino-protected histidine [9]: approximately 10 minutes; time to completion of reaction with amino-protected lysine [9]: approximately 10 minutes; mitotic index ([6]; 25 μM): around 20%
